PubChem BioAssay AID1963852 (Molecular Pharmacology Branch, DTP, NCI, 2024)

System: 282377-053-R-J1-PDC complex spheroid viability
Experiment: Anticancer human tumor 282377-053-R-J1-PDC patient-derived colon adenocarcinoma cell line growth inhibition [POLQ]
Conditions: for IC50: curve of first compound; for viability, T/C: stronger effect = lower value
Outline: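 Three-cell-type spheroids modelling solid tumor plus stroma served as the readout system; POL inhibitors were tested individually and in combination, concentration ranges set by clinical Cmax where known.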

[1] = second compound 0.0316 µM, first compound 0.0316 µM
[2] = second compound 0.0316 µM, first compound 0.1 µM
[3] = second compound 0.0316 µM, first compound 0.316 µM
[4] = second compound 0.0316 µM, first compound 1 µM
[5] = second compound 0.1 µM, first compound 0.0316 µM
[6] = second compound 0.1 µM, first compound 0.1 µM
[7] = second compound 0.1 µM, first compound 0.316 µM
[8] = second compound 0.1 µM, first compound 1 µM
[9] = second compound 0.316 µM, first compound 0.0316 µM
[10] = second compound 0.316 µM, first compound 0.1 µM
[11] = second compound 0.316 µM, first compound 0.316 µM
[12] = second compound 0.316 µM, first compound 1 µM
[13] = second compound 1 µM, first compound 0.0316 µM
[14] = second compound 1 µM, first compound 0.1 µM
[15] = second compound 1 µM, first compound 0.316 µM
[16] = second compound 1 µM, first compound 1 µM
[17] = second compound 3.16 µM, first compound 0.0316 µM
[18] = second compound 3.16 µM, first compound 0.1 µM
[19] = second compound 3.16 µM, first compound 0.316 µM
[20] = second compound 3.16 µM, first compound 1 µM
[21] = second compound 10 µM, first compound 0.0316 µM
[22] = second compound 10 µM, first compound 0.1 µM
[23] = second compound 10 µM, first compound 0.316 µM
[24] = second compound 10 µM, first compound 1 µM
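Further: spheroids exposed to compounds for seven days.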
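Wherever viability, T/C is given: 100% = DMSO vehicle control viability.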

Question: For `CCc1c2c(nc3ccc(O)cc13)-c1cc3c(c(=O)n1C2)COC(=O)[C@]3(O)CC` + Nc1ccc(C#CCN(C(=O)Cc2ncc(C(F)(F)F)cc2C(F)(F)F)c2ccc(F)cc2)nn1, which IC50 (second compound 0.0316 µM) is on record?
Answer: > 1 µM

Question: What about the IC50 (second compound 0.1 µM) of the same molecule?
Answer: 0.945 µM

Question: What about the IC50 (second compound 0.316 µM) of the same molecule?
Answer: 0.808 µM

Question: And the IC50 (second compound 1 µM)?
Answer: > 1 µM

Question: And the IC50 (second compound 3.16 µM)?
Answer: > 1 µM

Question: What about the IC50 (second compound 10 µM) of the same molecule?
Answer: 0.86 µM

Question: What about the viability, T/C (second compound 0.0316 µM, first compound 0.00316 µM) of the same molecule?
Answer: 99.3%

Question: What about the viability, T/C (second compound 0.0316 µM, first compound 0.01 µM) of the same molecule?
Answer: 96.8%

Question: And the viability, T/C [1]?
Answer: 80.7%

Question: And the viability, T/C [2]?
Answer: 78.3%

Question: And the viability, T/C [3]?
Answer: 69.9%

Question: What about the viability, T/C [4] of the same molecule?
Answer: 58.8%

Question: What about the viability, T/C (second compound 0.1 µM, first compound 0.00316 µM) of the same molecule?
Answer: 92%

Question: What about the viability, T/C (second compound 0.1 µM, first compound 0.01 µM) of the same molecule?
Answer: 84.3%

Question: What about the viability, T/C [5] of the same molecule?
Answer: 86%

Question: And the viability, T/C [6]?
Answer: 72.8%

Question: And the viability, T/C [7]?
Answer: 62.9%

Question: What about the viability, T/C [8] of the same molecule?
Answer: 49.4%

Question: What about the viability, T/C (second compound 0.316 µM, first compound 0.00316 µM) of the same molecule?
Answer: 101%

Question: What about the viability, T/C (second compound 0.316 µM, first compound 0.01 µM) of the same molecule?
Answer: 92.3%

Question: And the viability, T/C [9]?
Answer: 75.4%

Question: What about the viability, T/C [10] of the same molecule?
Answer: 74.4%

Question: And the viability, T/C [11]?
Answer: 60.4%

Question: And the viability, T/C [12]?
Answer: 46.8%

Question: What about the viability, T/C (second compound 1 µM, first compound 0.00316 µM) of the same molecule?
Answer: 107%

Question: And the viability, T/C (second compound 1 µM, first compound 0.01 µM)?
Answer: 91.7%

Question: What about the viability, T/C [13] of the same molecule?
Answer: 99.8%

Question: What about the viability, T/C [14] of the same molecule?
Answer: 66.9%

Question: And the viability, T/C [15]?
Answer: 61.8%

Question: What about the viability, T/C [16] of the same molecule?
Answer: 51.6%

Question: What about the viability, T/C (second compound 3.16 µM, first compound 0.00316 µM) of the same molecule?
Answer: 108%

Question: What about the viability, T/C (second compound 3.16 µM, first compound 0.01 µM) of the same molecule?
Answer: 87.1%

Question: And the viability, T/C [17]?
Answer: 83.8%

Question: And the viability, T/C [18]?
Answer: 70.6%

Question: What about the viability, T/C [19] of the same molecule?
Answer: 60.4%

Question: What about the viability, T/C [20] of the same molecule?
Answer: 51.5%

Question: And the viability, T/C (second compound 10 µM, first compound 0.00316 µM)?
Answer: 116%

Question: What about the viability, T/C (second compound 10 µM, first compound 0.01 µM) of the same molecule?
Answer: 127%

Question: And the viability, T/C [21]?
Answer: 97.1%

Question: And the viability, T/C [22]?
Answer: 80.3%

Question: What about the viability, T/C [23] of the same molecule?
Answer: 64.3%

Question: What about the viability, T/C [24] of the same molecule?
Answer: 46.4%

Question: `CC(=O)O[C@H]1C(=O)[C@@]2(C)[C@H]([C@H](OC(=O)c3ccccc3)[C@]3(O)C[C@H](OC(=O)[C@H](O)[C@@H](NC(=O)c4ccccc4)c4ccccc4)C(C)=C1C3(C)C)[C@]1(OC(C)=O)CO[C@@H]1C[C@@H]2O` + Nc1ccc(C#CCN(C(=O)Cc2ncc(C(F)(F)F)cc2C(F)(F)F)c2ccc(F)cc2)nn1 was tested. Which IC50 (second compound 0.0316 µM) did it give?
Answer: > 3 µM

Question: What about the IC50 (second compound 0.1 µM) of the same molecule?
Answer: > 3 µM

Question: What about the IC50 (second compound 0.316 µM) of the same molecule?
Answer: 3 µM

Question: What about the IC50 (second compound 1 µM) of the same molecule?
Answer: > 3 µM

Question: And the IC50 (second compound 3.16 µM)?
Answer: 0.0918 µM

Question: What about the IC50 (second compound 10 µM) of the same molecule?
Answer: > 3 µM

Question: And the viability, T/C (second compound 0.0316 µM, first compound 0.00949 µM)?
Answer: 102%

Question: What about the viability, T/C (second compound 0.0316 µM, first compound 0.03 µM) of the same molecule?
Answer: 50.7%

Question: What about the viability, T/C (second compound 0.0316 µM, first compound 0.0949 µM) of the same molecule?
Answer: 47.4%

Question: And the viability, T/C (second compound 0.0316 µM, first compound 0.3 µM)?
Answer: 46.9%

Question: What about the viability, T/C (second compound 0.0316 µM, first compound 0.949 µM) of the same molecule?
Answer: 51.2%

Question: And the viability, T/C (second compound 0.0316 µM, first compound 3 µM)?
Answer: 65.8%

Question: What about the viability, T/C (second compound 0.1 µM, first compound 0.00949 µM) of the same molecule?
Answer: 102%

Question: What about the viability, T/C (second compound 0.1 µM, first compound 0.03 µM) of the same molecule?
Answer: 65.9%

Question: And the viability, T/C (second compound 0.1 µM, first compound 0.0949 µM)?
Answer: 50.4%

Question: What about the viability, T/C (second compound 0.1 µM, first compound 0.3 µM) of the same molecule?
Answer: 46.5%

Question: And the viability, T/C (second compound 0.1 µM, first compound 0.949 µM)?
Answer: 53.8%

Question: What about the viability, T/C (second compound 0.1 µM, first compound 3 µM) of the same molecule?
Answer: 64.9%

Question: And the viability, T/C (second compound 0.316 µM, first compound 0.00949 µM)?
Answer: 100%

Question: And the viability, T/C (second compound 0.316 µM, first compound 0.03 µM)?
Answer: 47.7%

Question: What about the viability, T/C (second compound 0.316 µM, first compound 0.0949 µM) of the same molecule?
Answer: 49.7%

Question: And the viability, T/C (second compound 0.316 µM, first compound 0.3 µM)?
Answer: 50.1%

Question: What about the viability, T/C (second compound 0.316 µM, first compound 0.949 µM) of the same molecule?
Answer: 47.2%

Question: And the viability, T/C (second compound 0.316 µM, first compound 3 µM)?
Answer: 65.2%

Question: And the viability, T/C (second compound 1 µM, first compound 0.00949 µM)?
Answer: 99.1%

Question: What about the viability, T/C (second compound 1 µM, first compound 0.03 µM) of the same molecule?
Answer: 57.4%

Question: And the viability, T/C (second compound 1 µM, first compound 0.0949 µM)?
Answer: 44.2%

Question: And the viability, T/C (second compound 1 µM, first compound 0.3 µM)?
Answer: 53.3%

Question: What about the viability, T/C (second compound 1 µM, first compound 0.949 µM) of the same molecule?
Answer: 57.3%

Question: And the viability, T/C (second compound 1 µM, first compound 3 µM)?
Answer: 57.7%

Question: And the viability, T/C (second compound 3.16 µM, first compound 0.00949 µM)?
Answer: 87.8%

Question: What about the viability, T/C (second compound 3.16 µM, first compound 0.03 µM) of the same molecule?
Answer: 52.8%

Question: And the viability, T/C (second compound 3.16 µM, first compound 0.0949 µM)?
Answer: 42.3%

Question: And the viability, T/C (second compound 3.16 µM, first compound 0.3 µM)?
Answer: 49.7%

Question: What about the viability, T/C (second compound 3.16 µM, first compound 0.949 µM) of the same molecule?
Answer: 45.8%

Question: What about the viability, T/C (second compound 3.16 µM, first compound 3 µM) of the same molecule?
Answer: 60.8%

Question: And the viability, T/C (second compound 10 µM, first compound 0.00949 µM)?
Answer: 106%

Question: And the viability, T/C (second compound 10 µM, first compound 0.03 µM)?
Answer: 58.8%

Question: And the viability, T/C (second compound 10 µM, first compound 0.0949 µM)?
Answer: 49.7%

Question: And the viability, T/C (second compound 10 µM, first compound 0.3 µM)?
Answer: 50.9%

Question: What about the viability, T/C (second compound 10 µM, first compound 0.949 µM) of the same molecule?
Answer: 60.9%

Question: What about the viability, T/C (second compound 10 µM, first compound 3 µM) of the same molecule?
Answer: 77.6%

Question: What does the source list for `Nc1ccn(C2OC(CO)C(O)C2(F)F)c(=O)n1` (stereo unspecified) + Nc1ccc(C#CCN(C(=O)Cc2ncc(C(F)(F)F)cc2C(F)(F)F)c2ccc(F)cc2)nn1?
Answer: IC50 (second compound 0.0316 µM): > 10 µM; IC50 (second compound 0.1 µM): > 10 µM; IC50 (second compound 0.316 µM): > 10 µM; IC50 (second compound 1 µM): > 10 µM; IC50 (second compound 3.16 µM): > 10 µM; IC50 (second compound 10 µM): > 10 µM; viability, T/C [1]: 118%; viability, T/C [2]: 128%; viability, T/C [3]: 122%; viability, T/C [4]: 83.3%; viability, T/C (second compound 0.0316 µM, first compound 3.16 µM): 84.4%; viability, T/C (second compound 0.0316 µM, first compound 10 µM): 68.4%; viability, T/C [5]: 101%; viability, T/C [6]: 112%; viability, T/C [7]: 109%; viability, T/C [8]: 101%; viability, T/C (second compound 0.1 µM, first compound 3.16 µM): 80.4%; viability, T/C (second compound 0.1 µM, first compound 10 µM): 65.4%; viability, T/C [9]: 115%; viability, T/C [10]: 98.8%; viability, T/C [11]: 107%; viability, T/C [12]: 95.7%; viability, T/C (second compound 0.316 µM, first compound 3.16 µM): 83%; viability, T/C (second compound 0.316 µM, first compound 10 µM): 56.2%; viability, T/C [13]: 104%; viability, T/C [14]: 93.8%; viability, T/C [15]: 108%; viability, T/C [16]: 92.6%; viability, T/C (second compound 1 µM, first compound 3.16 µM): 81%; viability, T/C (second compound 1 µM, first compound 10 µM): 67.7%; viability, T/C [17]: 115%; viability, T/C [18]: 116%; viability, T/C [19]: 117%; viability, T/C [20]: 107%; viability, T/C (second compound 3.16 µM, first compound 3.16 µM): 108%; viability, T/C (second compound 3.16 µM, first compound 10 µM): 78.8%; viability, T/C [21]: 124%; viability, T/C [22]: 120%; viability, T/C [23]: 127%; viability, T/C [24]: 124%; viability, T/C (second compound 10 µM, first compound 3.16 µM): 114%; viability, T/C (second compound 10 µM, first compound 10 µM): 90.5%
